Experimental data taken from patent US20260117071A1, “ICG LIPID DERIVATIVE, AND LIPID MICROPARTICLES EACH CONTAINING SAME” (Eisai R&D Management Co., Ltd., priority 2022, published 2026).

Experiment: Calculation of the molar extinction coefficient (absorption spectrum in ethanol)
Assay type: physicochemical
Conditions: absorbance at 790 nm, 5 μM in ethanol, optical path length 1 cm
Procedure: An ICG lipid solution, prepared by the dissolution of the particular ICG lipid derivative or ICG in ethanol to provide 5 μM in each case, was introduced into a cuvette with an optical path length of 1 cm, and the absorption spectrum at 230 to 1000 nm was measured using an Infinite M200 (Tecan). The absorption spectra in FIG. 5 were provided by subtracting the absorption spectra of ethanol from the absorbance at each wavelength.
The molar concentration used in the calculation of the molar extinction coefficient was itself calculated using a purity of 100% for the ICG lipid derivative and using the nonsalt form.

Row | molar extinction coefficient ε [L/mol/cm] | SMILES
1 | 199840 | CCCCCCCCCCCCCCCCCC(=O)OCC(COP(=O)([O-])OCCNC(=O)CC[N+]1=C(/C=C/C=C/C=C/C=C2/N(CCC(=O)NCCOP(=O)(O)OCC(COC(=O)CCCCCCCCCCCCCCCCC)OC(=O)CCCCCCCCCCCCCCCCC)c3ccc4ccccc4c3C2(C)C)C(C)(C)c2c1ccc1ccccc21)OC(=O)CCCCCCCCCCCCCCCCC (centres unmarked) [ICG-diDSPE, 2-(3-(2-((1E,3E,5E,7E)-7-(3-(3-((2-(((2,3-bis(stearoyloxy)propoxy)(hydroxy)phosphoryl)oxy)ethyl)amino)-3-oxopropyl)-1,1-dimethyl-1,3-dihydro-2H-benzo[e]indol-2-ylidene)hepta-1,3,5-trien-1-yl)-1,1-dimethyl-1H-benzo[e]indol-3-ium-3-yl)propanamide)ethyl (2,3-bis(stearoyloxy)propyl) phosphate]
2 | 161100 | CCCCCCCC/C=C\CCCCCCCC(=O)OCC(COP(=O)([O-])OCCNC(=O)CC[N+]1=C(/C=C/C=C/C=C/C=C2/N(CCC(=O)NCCOP(=O)(O)OCC(COC(=O)CCCCCCC/C=C\CCCCCCCC)OC(=O)CCCCCCC/C=C\CCCCCCCC)c3ccc4ccccc4c3C2(C)C)C(C)(C)c2c1ccc1ccccc21)OC(=O)CCCCCCC/C=C\CCCCCCCC (centres unmarked) [ICG-diDOPE, 2-(3-(2-((1E,3E,5E,7E)-7-(3-(3-((2-(((2,3-bis(oleoyloxy)propoxy)(hydroxy)phosphoryl)oxy)ethyl)amino)-3-oxopropyl)-1,1-dimethyl-1,3-dihydro-2H-benzo[e]indol-2-ylidene)hepta-1,3,5-trien-1-yl)-1,1-dimethyl-1H-benzo[e]indol-3-ium-3-yl)propanamide)ethyl(2,3-bis(oleoyloxy)propyl) phosphate]
3 | 165860 | CCCCCCCC/C=C\CCCCCCCC(=O)OCC(COP(=O)(O)OCCNC(=O)CCN1/C(=C/C=C/C=C/C=C/C2=[N+](CCCCS(=O)(=O)[O-])c3ccc4ccccc4c3C2(C)C)C(C)(C)c2c1ccc1ccccc21)OC(=O)CCCCCCC/C=C\CCCCCCCC (centres unmarked) [ICG-DOPE, 4-(2-((1E,3E,5E,7E)-7-(3-(3-((2-(((2,3-bis(oleoyloxy)propoxy)oxidophosphoryl)oxy)ethyl)amino)-3-oxopropyl)-1,1-dimethyl-1,3-dihyro-2H-benzo[e]indol-2-ylidene)hepta-1,3,5-trien-1-yl)-1,1-dimethyl-1H-benzo[e]indol-3-ium-3-yl)butane-1-sulfonate, reference compound]
4 | 177760 | CCCCCCCCCCCCCCCCCCNC(=O)CCN1/C(=C/C=C/C=C/C=C/C2=[N+](CCC(=O)NCCCCCCCCCCCCCCCCCC)c3ccc4ccccc4c3C2(C)C)C(C)(C)c2c1ccc1ccccc21 [ICG-diSA, 2-((1E,3E,5E,7E)-7-(1,1-dimethyl-3-(3-(octadecylamino)-3-oxopropyl)-1,3-dihydro-2H-benzo[e]indol-2-ylidene)hepta-1,3,5-trien-1-yl)-1,1-dimethyl-3-(3-(octadecylamino)-3-oxopropyl)-1H-benzo[e]indol-3-ium]

Row | SMILES | molar extinction coefficient ε [L/mol/cm]
5 | CC1(C)C(/C=C/C=C/C=C/C=C2/N(CCCCS(=O)(=O)[O-])c3ccc4ccccc4c3C2(C)C)=[N+](CCCCS(=O)(=O)[O-])c2ccc3ccccc3c21.[Na+] [ICG, Indocyanine green, reference compound] | 208980
